Experimental data reported in patent US20250170158A1, “METHODS OF TREATING MEDICAL CONDITIONS USING CENSAVUDINE OR A RELATED COMPOUND” (ROME Therapeutics, Inc., priority 2022, published 2025).
Entries after “also recorded” stand apart in the source; their conditions may differ. One block for each compound: values may come before it.

How the values were obtained:
[1] = biological target: T1, LINE1 reverse transcriptase (Homo sapiens, UniProt O00370); assay: Homogeneous time-resolved fluorescence (HTRF) LINE1 RT assay; assay type: biochemical; set-up: recombinant MBP-tagged LINE1 protein (238-1061); MBP; made in house; details: recombinant MBP-tagged LINE1 protein (238-1061), read-out: IC50, inhibition of LINE1 reverse transcriptase
Protocol: The LINE1 reverse transcriptase homogeneous time-resolved fluorescence (HTRF) assay was performed with recombinant MBP-tagged LINE1 protein (238-1061) (generated and purified according to procedures in Dai L. et al. BMC Biochemistry 2011; 12:18) in a 384-well format. Test compound was serially diluted in DMSO and further diluted in the assay buffer (50 mM Tris-HCl, 50 mM KCl, 10 mM MgCl2, 10 mM DTT, pH 8.1) to achieve a final DMSO concentration of 1%. The serially diluted compound was mixed with 64 ng/well of LINE1 enzyme, 5 nM of pre-annealed template/biotin-primer pair (synthesized at Generay Biotechnology), 10 nM of Fluorescein-12-dATP fluorescent probe (Perkin Elmer), and 1 μM dGTP/dCTP/dTTP (Thermo Fisher Scientific) in the assay buffer. The template/biotin-primer sequences were as follows:
After incubating at 25° C. for 60 minutes, the detection reagent (20 mM EDTA with streptavidin-terbium cryptate, Cisbio Bioassay) in the PPI buffer (Cisbio Bioassay) was added, and the mixture was incubated at 25° C. for 30 minutes. At the end of the incubation, fluorescence was read at ex/em=337/485 nm and ex/em=337/520 nm on an Envision 2104 plate reader (Perkin Elmer). The fluorescence ratio at 520/485 nm was used for the calculation. […] The IC50 was calculated by fitting the compound dose inhibition curve with a 4-parameter non-linear regression equation.

[2] = biological target: T2, HERV-K reverse transcriptase (Homo sapiens, UniProt V9H0F6); assay: Homogeneous time-resolved fluorescence (HTRF) HERV-K RT assay; assay type: biochemical; details: HERV-K reverse transcriptase (2-596)-8His protein, read-out: IC50, inhibition of HERV-K reverse transcriptase
T2 construct: fused on or other part: C-terminal 8His tag
T2 sequence (V9H0F6 entry or part of it): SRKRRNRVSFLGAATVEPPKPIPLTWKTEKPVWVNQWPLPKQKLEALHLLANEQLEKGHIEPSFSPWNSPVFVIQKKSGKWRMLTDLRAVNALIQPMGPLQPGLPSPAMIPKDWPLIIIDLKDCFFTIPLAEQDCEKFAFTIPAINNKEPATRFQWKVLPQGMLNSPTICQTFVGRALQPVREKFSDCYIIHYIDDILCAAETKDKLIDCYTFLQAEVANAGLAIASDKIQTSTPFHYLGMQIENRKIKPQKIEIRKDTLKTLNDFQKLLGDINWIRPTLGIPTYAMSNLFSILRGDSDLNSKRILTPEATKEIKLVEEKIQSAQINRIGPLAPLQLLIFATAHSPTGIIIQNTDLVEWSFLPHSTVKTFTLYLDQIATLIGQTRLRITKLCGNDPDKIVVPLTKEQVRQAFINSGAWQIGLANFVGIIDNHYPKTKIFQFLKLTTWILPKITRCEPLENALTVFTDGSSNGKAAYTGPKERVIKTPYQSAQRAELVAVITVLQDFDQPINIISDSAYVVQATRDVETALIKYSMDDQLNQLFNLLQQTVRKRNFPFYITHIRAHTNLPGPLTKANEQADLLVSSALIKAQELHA
Protocol: The HERV-K reverse transcriptase homogeneous time-resolved fluorescence (HTRF) assay was performed in a 384-well format with HERV-K reverse transcriptase (2-596)-8His protein. Baculoviruses were created using Bac-to-Bac technology (Invitrogen). pFastBac donor plasmids containing HERV-K reverse transcriptase sequence (NCBI GenBank number AAC63291.1, J. Virology (1999) Vol. 73, No. 3, pp. 2365-2375) were transformed into DH10 Bac cells following the manufacturer's instructions. Recombinant bacmids were then isolated clonally and transfected into SF9 cells with lipofectin. HERV-K reverse transcriptase was expressed in the SF9 insect cells and then purified using immobilized metal affinity chromatography (IMAC) followed by size-exclusion chromatography (SEC). Test compound was serially diluted in DMSO and further diluted in the assay buffer (50 mM Tris-HCl, 50 mM KCl, 10 mM MgCl2, 10 mM DTT, pH 8.1) to achieve a final DMSO concentration of 1%. […] At the end of the incubation, fluorescence was read at ex/em=337/485 nm and ex/em=337/520 nm on an Envision 2104 plate reader (Perkin Elmer). The fluorescence ratio at 520/485 nm was used for the calculation. […] The IC50 was calculated by fitting the compound dose inhibition curve with a 4-parameter non-linear regression equation.

Type 1 Interferon = assay: Cellular assay for inhibiting IFN production in THP1 TREX1 KO cells; assay type: cell-based; details: THP1-Dual KO-TREX1 cells, six days of treatment, alone or with 1 μM 5-Aza-2'-Deoxycytidine; FIG. 2
Protocol: THP1 Dual TREX1 KO cells were purchased from Invivogen.
Stock solution of censavudine was prepared in DMSO followed by a three-fold dilution in DMSO. Additional 50× dilution was prepared in cell culture media for each dilution. 10 μL of diluted censavudine was then added to a 96 well plate.
THP1-Dual™ KO-TREX1 cells were treated with either 1×PBS or 1 μM 5-Aza-2′-Deoxycytidine. 190 μL of the THP1-Dual™ KO-TREX1 cells from either treatment were added to each well of the 96-well plate containing censavudine titration at 50,000 cells/well. Cells were incubated at 37° C., 5% CO2 in a humidified incubator for six days. Cells treated with 1 μM 5-Aza-2′-Deoxycytidine were added at the same density as above and incubated at 37° C., 5% CO2 in a humidified incubator for six days. On day six, 25 μL of cell supernatant was transferred to a 96 well white-walled plate, followed by addition of 50 μL of QUANTI-LUC solution containing stabilizer to each well.

IL-17A, IFN, TNF = assay: Mouse MOG study: lymph node cell culture and CBA cytokine analysis; assay type: in vivo, C57BL mice
Protocol: (§1) On day zero, four groups of six C57BL mice were immunized subcutaneously at 2 sites with 0.1 mL/site with MOG35-55/CFA (Hooke immunization kit). Dosing of mice started on day 0 and continued through day 11. The dosing schedule was:
(§2) The Vehicle used was 0.5% methylcellulose. Mice were dosed each day at approximately the same time each day. One day 11, 1 hour after receiving the last dose, plasma was collected, frozen and stored at −80° C. for analysis. At the end of the experiment, all mice were euthanized, and inguinal lymph nodes were collected and processed.
Lymph node cells from each group were set up in 96-well plates with 400k cells/well along with seven concentrations of antigen: 0, 0.07 μg/mL, 0.2 μg/mL, 0.7 μg/mL, 2.2 μg/mL, 6.6 μg/mL and 20.0 μg/mL. After 72 hours of culturing, the supernatants were collected and analyzed for IL-17A, IFN […] , and TNF using CBA kits (Becton-Dickinson).

CD4+ T cells = assay: Mouse MOG study: BrdU cell proliferation assay on lymph node cells; assay type: in vivo, C57BL mice
Protocol: as §1, §2
A bromodeoxyuridine (BrdU) cell proliferation assay was run on some of the lymph node cells to determine if treatment of mice with censavudine altered the proliferation of CD4+ T cells in culture upon restimulation with antigen. Cultures of the cells were set up in 96-well plates, each using 400k cells/well along with six concentrations of antigen: 0, 0.2 μg/mL, 0.7 μg/mL, 2.2 μg/mL, 6.6 μg/mL and 20.0 μg/mL, each with duplicates. The cells were cultured for approximately 40 hours, then BrdU was added to all wells at a concentration of 3 μg/mL. The cells were cultured an additional 3 hours after the addition of BrdU. Cells were then collected, stained with anti-CD4 and anti-BrdU antibodies (as per Becton Dickinson's standard protocols for BrdU labeling) and analyzed.

[3] = biological target: T1, LINE1 reverse transcriptase; assay: Stable artificial-intron Cis LINE1 reporter assay; assay type: cell-based; set-up: expressed in transfected cells; details: HeLa L1 artificial-intron reporter cells, doxycycline induced, 72 h, Firefly luciferase; read-out: IC50, inhibition of LINE1 reverse transcriptase
Source text: A stable HeLa Tet-On 3G (Takara, cat no 631183) cell line expressing a bi-directional inducible LINE1 construct was generated as described in Xie, Y. et al. “Cell division promotes efficient retrotransposition in a stable L1 reporter cell line,” Mobile DNA (2013) 4:10. Single cell clones were screened for high Luciferase expression and the highest expression Firefly expressing clone was chosen for compound testing.
Test compound was serially diluted in DMSO and spotted in 96-well plates. Subsequently the HeLa L1 artifical-intron reporter cells were plated into the compound-containing wells (8,000 cells/well), and the cells were induced for reporter expression with doxycycline (Sigma cat no D9891) at a final concentration of 500 ng/mL. Luminescence was measured 72 h after plating using the Dual-Glo Luciferase Assay System (Promega cat no E2940) following the manufacturer's instructions. The Firefly Luciferase activity was used to report LINE1 activity.

[4] = biological target: T1, LINE1 reverse transcriptase; assay: Transient artificial-intron Cis LINE1 reporter assay; assay type: cell-based; set-up: expressed in transfected cells; details: HEK 293 cells; ratio of FLuc to RLuc reports LINE1 activity; read-out: IC50, inhibition of FLuc (FF/RR)
Protocol: Intron-disrupted Firefly luciferase (FLuc) expression cassettes were generated as described by Xie, Y. et al. “Characterization of L1 retrotransposition with high-throughput dual-luciferase assays,” Nucleic Acid Res. (2011) Vol. 39, No. 3, e16. In addition, the plasmid contained an intact Renilla luciferase (RLuc) expression cassette on the vector backbone, in order to normalize transfection efficiency and measure potential cell toxicity.
HEK 293 cells were seeded in 96-well plates at 1,000 cells/well in 55 μL and grown for 24 hours. Cells were transfected with FuGeneHD (Promega) following the manufacturer's protocol. Each well received 0.133 ng plasmid, 0.4 μL FuGeneHD reagent, and 4.5 μL GlutaMAX-I-supplemented Opti-MEM I reduced-serum medium (Invitrogen). Cells were simultaneously treated with test compound serially diluted starting at 100 μM in a 3-fold dilution dose response.
Luminescence was measured using the Dual-Glo Luciferase Assay System (Promega) following the manufacturer's instructions. The ratio between FLuc and RLuc gene expression was used to report LINE1 activity.

Protocol for THP1-Dual KO-TREX1 cells: The THP1-Dual™ KO-TREX1 cells were cultured in RPMI 1640, 10% heat-inactivated fetal bovine serum, 25 mM HEPES, 10 μg/mL Blasticidin, and 100 μg/mL Zeocin. THP1-Dual™ KO-TREX1 cells were treated with a dose titration of censavudine alone or in the presence of 1 μM 5-Aza-2′-Deoxycytidine (Sigma, cat #189825). Type 1 Interferon and cell viability were assessed after six days of treatment.
The remaining cells were assessed for cell viability by adding 25 μL of CellTiter-Glo (Promega, G9683) solution to each well, placed on a shaker for 10 minutes at room temperature. Luminescence was detected on a plate reader, according to manufacturer's instructions.

IC50 [1]: 70 nM
IC50 [2]: 6400 nM
SMILES: C#C[C@@]1(COP(=O)(O)OP(=O)(O)OP(=O)(O)O)C=C[C@H](n2cc(C)c(=O)[nH]c2=O)O1

SMILES: C#C[C@@]1(CO)C=C[C@H](n2cc(C)c(=O)[nH]c2=O)O1 [censavudine, 1-[(2R,5R)-5-ethynyl-5-(hydroxymethyl)-2H-furan-2-yl]-5-methylpyrimidine-2,4-dione]
interferon (Type 1 Interferon reporter) (Type 1 Interferon): significant reduction of interferon; also recorded: inhibition of interferon
IL-17A level (IL-17A, IFN, TNF; MOG35-55/CFA immunized mice, QD p.o. day 0-11, lymph node cells restimulated with antigen 72 h, FIG. 4A): reduce levels; also recorded: reduction of IL17A
TNF level (IL-17A, IFN, TNF; MOG35-55/CFA immunized mice, QD p.o. day 0-11, lymph node cells restimulated with antigen 72 h, FIG. 4B): reduce levels; also recorded: reduction of TNF
IFN level (IL-17A, IFN, TNF; MOG35-55/CFA immunized mice, QD p.o. day 0-11, lymph node cells restimulated with antigen 72 h, FIG. 4C): reduce levels; also recorded: reduction of IFN
proinflammatory cytokines (IL17A, TNF, IFN), effect (IL-17A, IFN, TNF; all doses (8, 40, 200 mg/kg QD p.o.), FIGS. 4A-4C): some effect
proinflammatory cytokines (IL17A, TNF, IFN), response (IL-17A, IFN, TNF; doses of 40 mg/kg and 200 mg/kg, FIGS. 4A-4C): best responses
cell viability / cell death (THP1-Dual KO-TREX1 cells): does not lead to cell death
T cell proliferation (CD4+ T cells; MOG immunized mice, QD p.o. day 0-11, lymph node cells restimulated with antigen, BrdU, FIG. 3A): reduce levels; also recorded: reduction of T-cell proliferation
Th17 (T17) (CD4+ T cells; MOG immunized mice, various doses QD p.o., FIG. 3B): reduce levels; also recorded: reduction of the cytokine Th17
Th1 (T1) (CD4+ T cells; MOG immunized mice, various doses QD p.o., FIG. 3C): reduce levels; also recorded: reduction of the cytokine Th1
autoreactive T-cell responses (CD4+ T cells; doses between 40 mg/kg and 200 mg/kg, FIGS. 3A-3C): significant reduction

SMILES: C#C[C@@]1(CO)C=C[C@H](n2cc(C)c(=O)[nH]c2=O)O1 [drawing 16]
IC50 [3]: 130 nM
IC50 [4]: 60 nM
